Test results from publication PMC9460506, “Polyphenol-Rich Date Palm Fruit Seed (Phoenix Dactylifera L.) Extract Inhibits Labile Iron, Enzyme, and Cancer Cell Activities, and DNA and Protein Damage” (Nutrients, 2022).
In brackets after ≈: the same amount, converted by molar mass.

Columns and labels:
[1] = Ferric-reducing/antioxidant power (FRAP) test; conditions: tested 0.1 to 5 mg/mL
Protocol: The FRAP reagent proportions consisted of 1:1:10 (v/v/v) of TPTZ 10 mM solution in 40 mM HCl, FeCl3 20 mM, and acetate buffer pH 3.6, 0.3 M. Then, 1 mL of the tested sample was mixed with 2 mL of freshly prepared FRAP reagent. The mixtures were incubated for 30 min at 37 °C. The absorbance was conducted using a Varian CARY 50 Scan UV–VIS Spectrophotometer with a Cary 50 Microplate Reader Accessory (Varian, Inc., Walnut Creek, CA, USA), at 593 nm. Deionized water was used as a blank. FeSO4 was used for the calibration curve. The values of FRAP were expressed as µmol of Fe (II).

Ferritin = experiment: Labile iron inhibition test (iron release from ferritin by superoxide); type: biochemical
Protocol: The tested mixture was irradiated with a fluorescent lamp at room temperature for 90 min. Labile iron was measured, as noted previously.

[2] = DPPH free radical-scavenging test; conditions: tested 0.1 to 5 mg/mL
Protocol: They were determined to be effective against 1,1-diphenyl-2, picrylhydrazyl radicals. The results of the study were compared with those of a previously reported method. […] The absorbance was conducted using a Varian CARY 50 Scan UV–VIS Spectrophotometer with a Cary 50 Microplate Reader Accessory (Varian, Inc., Walnut Creek, CA, USA).

[3] = Nitric oxide radical (NO) scavenging test (Griess reaction)
Protocol: In brief, 3 mL of the reaction mixture (2 mL of 10 mM sodium nitroprusside, 0.5 mL phosphate buffer saline, and 0.5 of tested samples). The mixture was incubated for 150 min at 25 °C. Then 0.5 mL of the mixture was mixed with 1 mL of (sulfanilic acid reagent: 0.33% in 20% glacial acetic acid). After 5 min, 1 mL of naphthyl ethylene diamine dihydrochloride 0.1% was added. After 30 min at room temperature, the absorbance was conducted using a Varian CARY 50 Scan UV–VIS Spectrophotometer with a Cary 50 Microplate Reader Accessory (Varian, Inc., Walnut Creek, CA, USA) at 540 nm. The nitrite percentage was determined by considering Equation 1 described above.

[4] = Total antioxidant activity (TAC, phosphomolybdate); conditions: tested 0.1-5 mg/mL
Protocol: In brief, 0.3 mL of a reagent composed of sodium phosphate 28 mM, sulphuric acid 0.6 M, and ammonium molybdate 4 mM were added to 0.1 mL tested samples and incubated at 95 °C for 90 min. After cooling, the mixture was measured at 695 nm using a Varian CARY 50 Scan UV–VIS Spectrophotometer with a Cary 50 Microplate Reader Accessory (Varian, Inc., Walnut Creek, CA, USA). A higher antioxidant capacity is correlated with a higher absorbance value.

[5] = tested on: Bovine Serum Albumin (BSA)
Protocol: Bovine Serum Albumin (BSA) was oxidized by AAPH using a method outlined earlier [18]. […] The control sample was without AAPH.
Then the mixture was loaded and separated using SDS-PAGE 10% after reduction conditions for 5 min, at 100 °C. The free stained gels’ images were taken with a ChemiDoc MV gel documentation system (Bio-Rad, Hercules, CA, USA). The band intensity determined the protein damage amount for each band using Image Lab 4.1 Software version 6.1.0 (Bio-Rad, Hercules, CA, USA).

Structure (SMILES) | Free Radical Inhibition Activity IC50, FRAP [1] [mg/L] | percent inhibition of iron release from ferritin (Ferritin; at 10 μg) [%] | percent inhibition of iron release from ferritin (Ferritin; at 50 μg) [%] | percent inhibition of iron release from ferritin (Ferritin; at 100 μg) [%] | Free Radical Inhibition Activity IC50, DPPH [2] [mg/L] | scavenging capacity for NO ([3]; 0.5 mg/mL) [%] | scavenging capacity for NO ([3]; 1 mg/mL) [%] | scavenging capacity for NO ([3]; 3 mg/mL) [%] | scavenging capacity for NO ([3]; 5 mg/mL) [%] | scavenging capacity for NO ([3]; starting value (lowest concentration)) [%] | IC50, Nitric oxide ([3]; tested 0.1 to 5 mg/mL) [mg/L] | IC50, Total antioxidant Capacity [4] [mg/L] | IC50 [5] [mg/L] | IC50, Labile Iron (Ferritin; iron release from ferritin by superoxide) [mg/L]
C[C@@H]1O[C@@H](OC[C@H]2O[C@@H](Oc3c(-c4ccc(O)c(O)c4)oc4cc(O)cc(O)c4c3=O)[C@H](O)[C@@H](O)[C@@H]2O)[C@H](O)[C@H](O)[C@H]1O [Rutin] | 533 ± 22.85 | 85.32 ± 0.56 | 90.30 ± 0.01 | 96.65 ± 0.01 | – | – | – | – | – | – | – | – | – | –
O=C1O[C@H]([C@@H](O)CO)C(O)=C1O [VC, vitamin C] | – | – | – | – | 880 ± 12.89 | 40.92 | 29.57 | 55.12 | 56.55 | 59.10 | 2710 ± 65.98 (≈ 15.4 mM) | 3005.29 ± 427.80 (≈ 17.1 mM) | < 100 | –
Cc1c(C)c2c(c(C)c1O)CCC(C)(C(=O)O)O2 (centres unmarked) [Trolox] | – | 39.33 ± 0.54 | 84.79 ± 3.00 | 87.87 ± 1.87 | – | – | – | – | – | – | – | – | – | –
O=C(O)c1cc(O)c(O)c(O)c1 [Gallic acid, gallic acid] | – | 50.68 ± 0.18 | 59.22 ± 0.81 | 68.55 ± 0.38 | – | – | – | – | – | – | – | – | – | 4.86 ± 0.23 (≈ 0.0286 mM)
